In patent US20260108546A1 (ELI LILLY AND COMPANY, priority 2024, published 2026) one finds Emax and EC50 data, which are given here for 13 compounds.

The experiment has as its target T1, hGIP-R (Homo sapiens, UniProt P48546).
T1 construct: expressed in transfected cells; host or cells: HEK-293 clonal cell lines
T1 sequence (P48546 22-466): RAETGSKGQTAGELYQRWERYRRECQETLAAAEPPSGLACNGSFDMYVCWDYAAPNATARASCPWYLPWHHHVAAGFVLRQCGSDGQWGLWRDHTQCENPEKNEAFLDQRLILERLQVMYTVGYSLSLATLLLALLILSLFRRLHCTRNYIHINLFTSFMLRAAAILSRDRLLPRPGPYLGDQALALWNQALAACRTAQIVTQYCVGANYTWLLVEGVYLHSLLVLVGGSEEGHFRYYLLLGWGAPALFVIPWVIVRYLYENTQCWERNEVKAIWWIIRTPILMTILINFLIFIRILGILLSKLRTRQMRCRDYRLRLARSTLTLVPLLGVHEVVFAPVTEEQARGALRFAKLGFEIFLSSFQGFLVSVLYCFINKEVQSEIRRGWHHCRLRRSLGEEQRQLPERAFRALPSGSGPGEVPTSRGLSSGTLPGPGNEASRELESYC
Put plainly: Functional hGIP-R Assay (cAMP formation, HTRF). As to conditions: for Emax: cAMP efficacy, percent of maximal response to GIP(1-42)OH, 37° C., 0.1% bovine casein, arithmetic mean ± SEM; for EC50: cAMP potency, HEK-293 cells expressing hGIP-R, incubated at 37° C. in the presence of 0.1% bovine casein, geometric mean, read-out: Human GIP-R EC50, nM (SEM, n). It counts as cell-based. In a few lines: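 Relative EC50 and Emax came from four-parameter logistic fits of cAMP as a percent of the human GIP (1-42) OH maximal response. The cAMP was measured by competitive HTRF after 30 min, 37 °C compound exposure of hGIP-R HEK-293 clones in IBMX (250 μM)-containing medium.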

The structures appear in SMILES notation.

One may read the Emax as the size of the effect at its maximum, as opposed to the concentration needed. As a reminder, the EC50 is the concentration that produces a half-maximal response. For the compound `COc1ccc(-c2ccc([C@H]3C[C@@]34CCN([C@H](Cc3cnn(C(F)F)c3)C(=O)NC(C)(C)Cn3nc(C(F)(F)F)cc3-c3ccn(C5CC5)c(=O)c3)C4=O)c(C)n2)cn1` [Example 172, (R)-N-(1-(5-(1-cyclopropyl-2-oxo-1,2-dihydropyridin-4-yl)-3-(trifluoromethyl)-1H-pyrazol-1-yl)-2-methylpropan-2-yl)-3-(1-(difluoromethyl)-1H-pyrazol-4-yl)-2-((1R,3R)-1-(6′-methoxy-6-methyl-[2,3′-bipyridin]-5-yl)-4-oxo-5-azaspiro[2.4]heptan-5-yl)propanamide], the Emax came to 12.6 ± 0.102% and the EC50 amounted to 3.16 nM.
The matching figures for `COc1ncc(-c2ccc([C@H]3C[C@@]34CCN([C@H](Cc3cnn(C(F)F)c3)C(=O)NC(C)(C)Cn3nc(C(F)(F)F)cc3-c3ccn(C5CC5)c(=O)c3)C4=O)c(C)n2)cn1` [Example 173, (R)-N-(1-(5-(1-cyclopropyl-2-oxo-1,2-dihydropyridin-4-yl)-3-(trifluoromethyl)-1H-pyrazol-1-yl)-2-methylpropan-2-yl)-3-(1-(difluoromethyl)-1H-pyrazol-4-yl)-2-((1R,3R)-1-(6-(2-methoxypyrimidin-5-yl)-2-methylpyridin-3-yl)-4-oxo-5-azaspiro[2.4]heptan-5-yl)propanamide]: 15.9 ± 0.138% and 24.6 nM.
In the case of `COc1ncc(-c2ccc([C@H]3C[C@@]34CCN([C@H](Cc3cnn(C(F)F)c3)C(=O)NC(C)(C)Cn3nc(C(F)(F)F)cc3-c3ccn(C5CC5)c(=O)c3)C4=O)c(C)n2)cc1F` [Example 174, (R)-N-(1-(5-(1-cyclopropyl-2-oxo-1,2-dihydropyridin-4-yl)-3-(trifluoromethyl)-1H-pyrazol-1-yl)-2-methylpropan-2-yl)-3-(1-(difluoromethyl)-1H-pyrazol-4-yl)-2-((1R,3R)-1-(5′-fluoro-6′-methoxy-6-methyl-[2,3′-bipyridin]-5-yl)-4-oxo-5-azaspiro[2.4]heptan-5-yl)propanamide], the Emax worked out at 13.4 ± 1.64% and the EC50 was found to be 6.09 nM.
In the same order, the values of `[2H]C([2H])([2H])n1cc(C[C@H](C(=O)NC(C)(C)Cn2nc(C(F)(F)F)cc2-c2ccc(C)nc2)N2CC[C@@]3(C[C@@H]3c3ccc(-c4cnc5nc(C6CC6)cn5c4)nc3C)C2=O)cn1` [Example 175, (R)-2-((1R,3R)-1-(6-(2-cyclopropylimidazo[1,2-a]pyrimidin-6-yl)-2-methylpyridin-3-yl)-4-oxo-5-azaspiro[2.4]heptan-5-yl)-N-(2-methyl-1-(5-(6-methylpyridin-3-yl)-3-(trifluoromethyl)-1H-pyrazol-1-yl)propan-2-yl)-3-(1-(methyl-d3)-1H-pyrazol-4-yl)propanamide] are 112 ± 1.44% and 0.996 nM.
In the same order, the values of `COCc1cn2cc(-c3ccc([C@H]4C[C@@]45CCN([C@H](Cc4cnn(C(F)F)c4)C(=O)NC(C)(C)Cn4nc(C(F)(F)F)cc4-c4cncc(C)n4)C5=O)c(C)n3)cnc2n1` [Example 176, (R)-3-(1-(difluoromethyl)-1H-pyrazol-4-yl)-2-((1R,3R)-1-(6-(2-(methoxymethyl)imidazo[1,2-a]pyrimidin-6-yl)-2-methylpyridin-3-yl)-4-oxo-5-azaspiro[2.4]heptan-5-yl)-N-(2-methyl-1-(5-(6-methylpyrazin-2-yl)-3-(trifluoromethyl)-1H-pyrazol-1-yl)propan-2-yl)propanamide] are 123% and 14.4 nM.
The matching figures for `Cc1cn2cc(-c3ccc([C@H]4C[C@@]45CCN([C@H](Cc4cnn(C(F)F)c4)C(=O)NC(C)(C)Cn4nc(C(F)(F)F)cc4-c4ccc(C(C)(C)O)nc4)C5=O)c(C)n3)cnc2n1` [Example 178, (R)-3-(1-(difluoromethyl)-1H-pyrazol-4-yl)-N-(1-(5-(6-(2-hydroxypropan-2-yl)pyridin-3-yl)-3-(trifluoromethyl)-1H-pyrazol-1-yl)-2-methylpropan-2-yl)-2-((1R,3R)-1-(2-methyl-6-(2-methylimidazo[1,2-a]pyrimidin-6-yl)pyridin-3-yl)-4-oxo-5-azaspiro[2.4]heptan-5-yl)propanamide]: 39.9 ± 0.556% and 0.743 nM.
With `Cc1ncc(-c2cc(C(F)(F)F)nn2CC(C)(C)NC(=O)[C@@H](Cc2cnn(C(F)F)c2)N2CC[C@@]3(C[C@@H]3c3ccc(-c4cnc5nn(C6CC6)cc5c4)nc3C)C2=O)cn1` [Example 179, (R)-2-((1R,3R)-1-(6-(2-cyclopropyl-2H-pyrazolo[3,4-b]pyridin-5-yl)-2-methylpyridin-3-yl)-4-oxo-5-azaspiro[2.4]heptan-5-yl)-3-(1-(difluoromethyl)-1H-pyrazol-4-yl)-N-(2-methyl-1-(5-(2-methylpyrimidin-5-yl)-3-(trifluoromethyl)-1H-pyrazol-1-yl)propan-2-yl)propanamide], the Emax is 75.9 ± 4.59% and the EC50 turned out to be 2.95 nM.
In the same order, the values of `COc1nnc(C)cc1-c1cc(C(F)(F)F)nn1CC(C)(C)NC(=O)[C@@H](Cc1cnn(C(F)F)c1)N1CC[C@@]2(C[C@@H]2c2ccc(-c3cnc4nn(C)cc4c3)nc2C)C1=O` [Example 180, (R)-3-(1-(difluoromethyl)-1H-pyrazol-4-yl)-N-(1-(5-(3-methoxy-6-methylpyridazin-4-yl)-3-(trifluoromethyl)-1H-pyrazol-1-yl)-2-methylpropan-2-yl)-2-((1R,3R)-1-(2-methyl-6-(2-methyl-2H-pyrazolo[3,4-b]pyridin-5-yl)pyridin-3-yl)-4-oxo-5-azaspiro[2.4]heptan-5-yl)propanamide] are 35.4 ± 1.96% and 7.75 nM.
In the same order, the values of `COC(=O)N(C)c1cc([C@H]2C[C@@H]2C(=O)N[C@H](Cc2cnn(C(F)F)c2)C(=O)NC(C)(C)Cn2nc(C(F)(F)F)cc2-c2cc(F)c(=O)n(C)c2)c(F)cc1O` [Example 181, Methyl (5-((1S,2S)-2-(((R)-3-(1-(difluoromethyl)-1H-pyrazol-4-yl)-1-((1-(5-(5-fluoro-1-methyl-6-oxo-1,6-dihydropyridin-3-yl)-3-(trifluoromethyl)-1H-pyrazol-1-yl)-2-methylpropan-2-yl)amino)-1-oxopropan-2-yl)carbamoyl)cyclopropyl)-4-fluoro-2-hydroxyphenyl)(methyl)carbamate] are 25.5 ± 2.92% and 23.1 nM.
In the same order, the values of `Cn1cc(-c2cc(C(F)(F)F)nn2CC(C)(C)NC(=O)[C@@H](Cc2cnn(C(F)F)c2)NC(=O)[C@H]2C[C@@H]2c2ccc3c(c2)n(C)c(=O)n3C)cc(F)c1=O` [Example 182] are 30.4 ± 2.08% and 41.4 nM.
Regarding `Cn1cc(-c2cc(C(F)(F)F)nn2CC(C)(C)NC(=O)[C@@H](Cc2cnn(C(F)F)c2)NC(=O)[C@H]2C[C@@H]2c2ccc3c(Cl)nn(C)c3c2)cc(F)c1=O` [Example 183, (1S,2S)-2-(3-chloro-1-methyl-1H-indazol-6-yl)-N-((R)-3-(1-(difluoromethyl)-1H-pyrazol-4-yl)-1-((1-(5-(5-fluoro-1-methyl-6-oxo-1,6-dihydropyridin-3-yl)-3-(trifluoromethyl)-1H-pyrazol-1-yl)-2-methylpropan-2-yl)amino)-1-oxopropan-2-yl)cyclopropane-1-carboxamide], the Emax came to 4.64 ± 0.608% and the EC50 came out at 44.9 nM.
In the same order, the values of `[2H]C([2H])([2H])n1cc(C[C@H](C(=O)NC(C)(C)Cn2nc(C(F)(F)F)cc2-c2ccc(C(C)(C)O)nc2)N2CC[C@@]3(C[C@@H]3c3ccc(-c4cnc5nc(C6CC6)cn5c4)nc3C)C2=O)cn1` [Example 185, (R)-2-((1R,3R)-1-(6-(2-cyclopropylimidazo[1,2-a]pyrimidin-6-yl)-2-methylpyridin-3-yl)-4-oxo-5-azaspiro[2.4]heptan-5-yl)-N-(1-(5-(6-(2-hydroxypropan-2-yl)pyridin-3-yl)-3-(trifluoromethyl)-1H-pyrazol-1-yl)-2-methylpropan-2-yl)-3-(1-(methyl-d3)-1H-pyrazol-4-yl)propanamide] are 115 ± 5.3% and 0.402 nM.
In the case of `[2H]C([2H])([2H])n1cc(C[C@H](C(=O)NC(C)(C)Cn2nc(C(F)(F)F)cc2-c2cnc(C(C)(C)O)nc2)N2CC[C@@]3(C[C@@H]3c3ccc(-c4cnc5nc(C6CC6)cn5c4)nc3C)C2=O)cn1` [Example 186, (R)-2-((1R,3R)-1-(6-(2-cyclopropylimidazo[1,2-a]pyrimidin-6-yl)-2-methylpyridin-3-yl)-4-oxo-5-azaspiro[2.4]heptan-5-yl)-N-(1-(5-(2-(2-hydroxypropan-2-yl)pyrimidin-5-yl)-3-(trifluoromethyl)-1H-pyrazol-1-yl)-2-methylpropan-2-yl)-3-(1-(methyl-d3)-1H-pyrazol-4-yl)propanamide], the Emax turned out to be 104 ± 0.548% and the 50% effective concentration (EC50) was 1.75 nM.
